Test systems include DU-145 prostate; HCT-116 colon; HOP-92 NSCLC; K-562 leukemia; MALME-3M melanoma; RPMI-8226 leukemia; SK-MEL-5 melanoma; SK-OV-3 ovarian; SN12C renal; UO-31 renal.
Holding throughout (experiment): NCI anticancer screen, dose series, 48 h

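96-well plates; 48 h exposure; 5 concentrations. Endpoints by linear interpolation between flanking doses. Not reached: highest tested concentration assigned. GI50: concentration for 50% inhibition of growth. TGI marks complete inhibition of growth.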

As to `COc1ccc([C@H]2O[C@@H](CO)C[C@]2(O)c2ccc(OC)cc2)cc1`, the GI50 is greater than 100 µM in the assay with DU-145 prostate; greater than 100 µM in the assay with HCT-116 colon; 95.6 µM in the assay with HOP-92 NSCLC; greater than 100 µM in the assay with K-562 leukemia; greater than 100 µM in the assay with MALME-3M melanoma; greater than 100 µM with RPMI-8226 leukemia. For the same compound, the GI50 in the assay on SK-MEL-5 melanoma, in the assay with SK-OV-3 ovarian, in the assay on SN12C renal and in the assay on UO-31 renal was greater than 100 µM throughout. Also, the TGI with DU-145 prostate, with HCT-116 colon, in the assay on HOP-92 NSCLC, in the assay on K-562 leukemia, with MALME-3M melanoma and in the assay on RPMI-8226 leukemia was greater than 100 µM in each case. Also, the TGI in the assay with SK-MEL-5 melanoma, in the assay on SK-OV-3 ovarian, in the assay on SN12C renal and with UO-31 renal was greater than 100 µM throughout.
`C#Cc1ccc(NC(=O)c2ccc(/C=C/C(=O)c3nccn3C)cc2)cc1`: the GI50 with DU-145 prostate was 0.597 µM; in the assay on HCT-116 colon, 0.326 µM; in the assay with HOP-92 NSCLC it was 0.53 µM; in the assay on K-562 leukemia it was 0.136 µM; in the assay on MALME-3M melanoma, 0.486 µM; in the assay with RPMI-8226 leukemia, 0.115 µM. In addition, the GI50 with SK-MEL-5 melanoma was 0.49 µM; in the assay with SK-OV-3 ovarian it was 0.979 µM; in the assay with UO-31 renal it was 0.346 µM. Moreover, the TGI stood at 1.57 µM in the assay on DU-145 prostate; 0.721 µM in the assay on HCT-116 colon; 2.23 µM in the assay on HOP-92 NSCLC; 6.55 µM in the assay on K-562 leukemia; 1.19 µM in the assay with MALME-3M melanoma; 0.672 µM in the assay on RPMI-8226 leukemia. Besides, the results for the TGI in the assay with SK-MEL-5 melanoma, in the assay with SK-OV-3 ovarian and in the assay with UO-31 renal were 1.01 µM, 24.3 µM and 0.677 µM, respectively.
As for `CC(C)(C)CC(C)(C)c1ccc(OCCOCCSC(=N)N)cc1`, the GI50 in the assay with DU-145 prostate was 1.84 µM; in the assay on HCT-116 colon, 1.5 µM; in the assay on HOP-92 NSCLC, 1.89 µM; in the assay on K-562 leukemia, 1.51 µM; with SK-OV-3 ovarian, 2.74 µM; in the assay on SN12C renal it was 1.81 µM. The GI50 in the assay on UO-31 renal was 1.75 µM. For the same compound, the TGI in the assay on DU-145 prostate was 3.34 µM; in the assay on HCT-116 colon, 2.83 µM; in the assay on HOP-92 NSCLC, 7.92 µM; in the assay with K-562 leukemia, 3.58 µM; in the assay with SK-OV-3 ovarian, 7.39 µM; in the assay with SN12C renal, 3.62 µM. The TGI with UO-31 renal was 3.91 µM.
With `FC(F)(F)c1ccc(-c2cnc(Br)nc2NC2CCCCCC2)cc1`, the GI50 in the assay on DU-145 prostate is greater than 100 µM; with HCT-116 colon, 14.4 µM; in the assay on K-562 leukemia, 50.4 µM; in the assay on MALME-3M melanoma, greater than 100 µM; in the assay with RPMI-8226 leukemia it was 7.98 µM; in the assay with SK-MEL-5 melanoma it was 29.1 µM. Further, the GI50 was greater than 100 µM in the assay with SK-OV-3 ovarian, greater than 100 µM with SN12C renal and 33.9 µM in the assay on UO-31 renal. In addition, the TGI in the assay with DU-145 prostate, in the assay with HCT-116 colon, in the assay with K-562 leukemia, with MALME-3M melanoma, in the assay with RPMI-8226 leukemia and in the assay on SK-MEL-5 melanoma was greater than 100 µM in each case. Further, the TGI with SK-OV-3 ovarian, in the assay with SN12C renal and in the assay with UO-31 renal was greater than 100 µM throughout.
Regarding `CC(=O)/C(C)=N/N/C(N)=N\S(=O)(=O)c1cc(C(=O)Nc2ccccc2)c(Cl)cc1SCc1ccccc1`, the GI50 is 3.5 µM in the assay on DU-145 prostate; 0.337 µM with HCT-116 colon; 5.54 µM with K-562 leukemia; greater than 100 µM in the assay with MALME-3M melanoma; 7.01 µM in the assay on RPMI-8226 leukemia; 24 µM in the assay with SK-MEL-5 melanoma. Also, the GI50 in the assay with SK-OV-3 ovarian is greater than 100 µM; with SN12C renal it was 28.2 µM; in the assay with UO-31 renal, 29.6 µM. Further, the TGI with DU-145 prostate, with HCT-116 colon, in the assay with K-562 leukemia, in the assay on MALME-3M melanoma, in the assay with RPMI-8226 leukemia and with SK-MEL-5 melanoma was greater than 100 µM throughout. Besides, the TGI in the assay with SK-OV-3 ovarian, with SN12C renal and with UO-31 renal was greater than 100 µM throughout.
For `O=C(/C=C/c1cccc(Cl)c1)c1ccc(Cl)cc1Cl`, the GI50 in the assay with DU-145 prostate is 9.59 µM; in the assay on HCT-116 colon, 20.4 µM; in the assay on HOP-92 NSCLC, 6.17 µM; in the assay on K-562 leukemia, 2.86 µM; with RPMI-8226 leukemia, 1.68 µM; in the assay on SK-MEL-5 melanoma it was 8.78 µM. Also, the values for the GI50 with SK-OV-3 ovarian, in the assay on SN12C renal and in the assay with UO-31 renal were 9.91 µM, 14.7 µM and 11.4 µM, respectively. In addition, the TGI was 23 µM in the assay on DU-145 prostate; greater than 50 µM in the assay with HCT-116 colon; 16.2 µM with HOP-92 NSCLC; greater than 50 µM with K-562 leukemia; greater than 50 µM with RPMI-8226 leukemia; 17.5 µM in the assay with SK-MEL-5 melanoma. Moreover, the results for the TGI with SK-OV-3 ovarian, with SN12C renal and in the assay on UO-31 renal were 21.7 µM, 32 µM and 25.8 µM, respectively.
Take `O=Cc1coc2ccccc2c1=O`: the TGI with DU-145 prostate is greater than 100 µM; in the assay on HCT-116 colon it was 32 µM; with K-562 leukemia, 55.5 µM; in the assay on MALME-3M melanoma, 30.2 µM; with RPMI-8226 leukemia, 52.1 µM; in the assay on SK-MEL-5 melanoma, 39 µM. The results for the TGI in the assay on SK-OV-3 ovarian, in the assay with SN12C renal and in the assay with UO-31 renal were 50.9 µM, 58.6 µM and 28.8 µM, respectively.
`CCCC[C@@H](COC(=O)N(Cc1cccs1)Cc1cccs1)NC(=O)N[C@@H](CC(=O)OC)c1ccc2c(c1)OCO2`: the GI50 in the assay with DU-145 prostate was greater than 100 µM; in the assay on HCT-116 colon, greater than 100 µM; with HOP-92 NSCLC, greater than 100 µM; in the assay on K-562 leukemia it was 59.6 µM; in the assay with MALME-3M melanoma, greater than 100 µM; with RPMI-8226 leukemia, 8.11 µM. Moreover, the GI50 with SK-MEL-5 melanoma, in the assay on SK-OV-3 ovarian and in the assay on SN12C renal was greater than 100 µM in each case. Besides, the TGI with DU-145 prostate, in the assay on HCT-116 colon, with HOP-92 NSCLC, with K-562 leukemia, in the assay with MALME-3M melanoma and with RPMI-8226 leukemia was greater than 100 µM throughout. The TGI with SK-MEL-5 melanoma, in the assay with SK-OV-3 ovarian and in the assay on SN12C renal was greater than 100 µM in each case.

For the origin of these results see PubChem BioAssay (NCI).
